Columns and labels:
[1] = target: T1, glucocorticoid receptor, rat thymus (Rattus norvegicus, UniProt P06536); assay: Relative binding affinity (ARL), glucocorticoid receptor of rat thymus; details: rat thymus cytosol, tritiated dexamethasone, cold reference dexamethasone; for relative affinity of the bond (ARL), Glucocorticoid, 2H: incubation 2H at 0° C.; for relative affinity of the bond (ARL), Glucocorticoid, 24H: incubation 24H at 0° C.
T1 construct: The second test was a glucocrticoid receptor test on rat thymus; from tissue; host or cells: thymus of adrenalectomized male Sprague Dawley EOPS rats, 105,000 g supernatant (cytosol)
T1 sequence (P06536 1-795): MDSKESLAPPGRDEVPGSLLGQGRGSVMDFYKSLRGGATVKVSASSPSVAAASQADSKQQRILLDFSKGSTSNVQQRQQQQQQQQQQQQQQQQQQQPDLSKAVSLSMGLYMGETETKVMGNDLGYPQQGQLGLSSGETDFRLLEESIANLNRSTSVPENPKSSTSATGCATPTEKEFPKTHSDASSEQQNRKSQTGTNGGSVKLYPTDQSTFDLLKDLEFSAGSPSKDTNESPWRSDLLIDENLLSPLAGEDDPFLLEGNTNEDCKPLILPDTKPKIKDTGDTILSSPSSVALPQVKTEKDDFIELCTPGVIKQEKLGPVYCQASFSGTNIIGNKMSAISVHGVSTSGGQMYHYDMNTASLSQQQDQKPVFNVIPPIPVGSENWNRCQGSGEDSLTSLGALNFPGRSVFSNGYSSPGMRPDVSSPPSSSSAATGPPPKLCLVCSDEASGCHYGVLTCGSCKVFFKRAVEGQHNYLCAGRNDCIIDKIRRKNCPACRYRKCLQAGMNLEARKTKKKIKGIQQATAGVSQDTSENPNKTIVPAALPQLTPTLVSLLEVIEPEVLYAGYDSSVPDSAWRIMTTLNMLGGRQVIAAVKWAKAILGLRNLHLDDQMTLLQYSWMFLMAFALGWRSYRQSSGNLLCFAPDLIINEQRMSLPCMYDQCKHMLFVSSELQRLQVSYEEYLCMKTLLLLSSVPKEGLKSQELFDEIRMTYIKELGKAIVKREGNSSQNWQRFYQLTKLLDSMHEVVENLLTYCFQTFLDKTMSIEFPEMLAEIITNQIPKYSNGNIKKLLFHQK
Experimental: The second test was a glucocrticoid receptor test on rat thymus in which male rats of the Sprague Dawley EOPS strain weighing 160 to 200 g were surrenalectomized. 4 to 8 days after this ablation, the animals were killed and the thymus was removed and homogenized at 0° C. in a buffered TS solution. (Tris 10 mM, 0.25M saccharose, 2 mM dithiothreitol, HCl pH 7.4) with a Potter tetrafluoroethylene-glass (1 g of tissue per 10 ml/TS). The homogenate was ultracentrifuged at 105,000 for 90 minutes at 0° C. and the surnageant samples were incubated at 0° C. for a time t with a constant concentration T of tritiated dexamethasone in the presence of increasing concentrations (0-2500×10^-9 M) or cold dexamethasone or cold test compound. The concentration B of bound tritiated dexamethasone was measured for each incubate by carbon-dextran absorption technique.
(§1) The relative affinity of the bond (ARL) was calculated in the same for the receptors. One traced the following 2 curves: the percentage of bond tritiated hormone B/T as a logarithmic function of the concentration of the cold reference hormone and B/T as a logarithmic function of the concentration of the cold test compound. Using the equation [formula] B/T max.=% of bound tritiated hormone for one incubation of tritiated hormone at concentration (T)
(§2) B/T min.=% of bound tritiated hormone for one incubation of tritiated hormone at a concentration T in the presence of a great excess of cold hormone (2500×10^-9 M).
(§3) The intersections of I50 lines and the curves permit an evaluation of the hormone concentration of the cold reference (CH) and the cold test compound (CX) which inhibited by 50% the bounding of tritiated hormone to the receptor. The ARL of the test compound was determined by the equation. [formula] and the following results were obtained.

[2] = target: T2, progesterone receptors of rabbit uterus (Oryctolagus cuniculus, UniProt P06186); assay: Relative binding affinity (ARL), progesterone receptors of rabbit uterus; details: rabbit uterus cytosol, tritiated 17,21-dimethyl-19-nor-Δ4,9-pregnadiene-3,20-dione, cold reference hormone progesterone; for relative affinity of the bond (ARL), Progestogen, 2H: incubation 2H at 0° C.; for relative affinity of the bond (ARL), Progestogen, 24H: incubation 24H at 0° C.
T2 construct: The first test was on the progesterone receptors of rabbit uterus; from tissue; host or cells: uterus of estradiol-treated immature rabbits, 105,000 g supernatant (cytosol)
T2 sequence (P06186 1-930): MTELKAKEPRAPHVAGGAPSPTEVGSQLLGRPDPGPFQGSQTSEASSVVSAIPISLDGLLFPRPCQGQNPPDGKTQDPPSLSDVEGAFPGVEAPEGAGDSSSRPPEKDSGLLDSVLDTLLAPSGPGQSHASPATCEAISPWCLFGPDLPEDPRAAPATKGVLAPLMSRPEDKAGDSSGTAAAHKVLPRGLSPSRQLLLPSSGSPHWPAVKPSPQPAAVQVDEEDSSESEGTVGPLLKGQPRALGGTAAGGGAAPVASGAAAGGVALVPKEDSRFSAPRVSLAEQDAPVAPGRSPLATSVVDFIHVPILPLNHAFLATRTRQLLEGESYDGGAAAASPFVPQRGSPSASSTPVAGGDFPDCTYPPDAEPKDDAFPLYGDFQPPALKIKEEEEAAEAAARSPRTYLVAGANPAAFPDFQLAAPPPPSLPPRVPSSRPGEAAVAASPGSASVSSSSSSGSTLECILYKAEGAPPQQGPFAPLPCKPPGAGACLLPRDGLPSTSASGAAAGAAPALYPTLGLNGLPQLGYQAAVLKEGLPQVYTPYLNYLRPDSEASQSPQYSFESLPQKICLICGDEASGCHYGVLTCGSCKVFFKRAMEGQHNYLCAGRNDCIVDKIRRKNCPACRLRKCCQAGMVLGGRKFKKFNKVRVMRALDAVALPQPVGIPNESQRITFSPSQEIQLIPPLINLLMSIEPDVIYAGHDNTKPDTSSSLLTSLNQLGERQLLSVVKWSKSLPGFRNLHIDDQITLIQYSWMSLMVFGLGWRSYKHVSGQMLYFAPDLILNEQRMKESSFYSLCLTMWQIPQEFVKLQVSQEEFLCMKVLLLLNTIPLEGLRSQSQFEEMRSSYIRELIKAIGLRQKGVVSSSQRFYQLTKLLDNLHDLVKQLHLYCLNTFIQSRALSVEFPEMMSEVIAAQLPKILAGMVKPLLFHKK
Experimental: The first test was on the progesterone receptors of rabbit uterus in which immature rabbits weighing about 1 kg received a cutaneous application of […] of estradiol and 5 days after treatment, the animals were sacrificed. The […] was removed, weighed and homogenized at 0° C. with a Potter Teflon-glass ina buffered solution. TS (Tris 10 mM, 0.25M Saccharose, HCl, pH 7.4) (1 g of tissue per 50 ml of TS). The homogenate was ultracentrifuged at 105,000 g×90 minutes at 0° C. The surnageant samples were incubated at a time at (t) 0° C. with a constant concentration (T) of tritiated product (R) which is 17,21-dimethyl-19-nor-Δ^4,9 -pregnadiene-3,20-dione in the presence of increasing concentrations from 0 to 2500×10^-9 M or cold R or cold progestenone or cold test compound. The concentration of bound tritiated R was measured for each incubate by absorption technique on dextran carbon.
as §1, §2, §3

| SMILES | relative affinity of the bond (ARL), Glucocorticoid, 2H [1] | relative affinity of the bond (ARL), Glucocorticoid, 24H [1] | relative affinity of the bond (ARL), Progestogen, 2H [2] | relative affinity of the bond (ARL), Progestogen, 24H [2] |
| --- | --- | --- | --- | --- |
| CN(C)c1ccc([C@H]2C[C@@]3(C)[C@@H](CC[C@@]3(O)c3ccc(N(C)C)cc3)[C@@H]3CCC4=CC(=O)CCC4=C32)cc1 [Example 2, 11β,17α-bis-(4-dimethylamino-phenyl)-Δ^4,9-estradiene-17β-ol-3-one] | 61 | 58 | 32 | 183 |
| COc1ccc([C@]2(O)CC[C@H]3[C@@H]4CCC5=CC(=O)CCC5=C4[C@@H](c4ccc(N(C)C)cc4)C[C@@]32C)cc1 [Example 4, 11β-(4-dimethylamino-phenyl)-17α-(4-methoxy-phenyl)-Δ^4,9-estradiene-17β-ol-3-one] | 65 | 69 | 51 | 264 |
